{
  "source": "ChEMBL document CHEMBL1201862",
  "about": "“PubChem BioAssay data set” (2004)",
  "key": {"[1]": {"target": "Luciferin 4-monooxygenase (Photinus pyralis, UniProt P08659)", "sequence (P08659 whole entry)": "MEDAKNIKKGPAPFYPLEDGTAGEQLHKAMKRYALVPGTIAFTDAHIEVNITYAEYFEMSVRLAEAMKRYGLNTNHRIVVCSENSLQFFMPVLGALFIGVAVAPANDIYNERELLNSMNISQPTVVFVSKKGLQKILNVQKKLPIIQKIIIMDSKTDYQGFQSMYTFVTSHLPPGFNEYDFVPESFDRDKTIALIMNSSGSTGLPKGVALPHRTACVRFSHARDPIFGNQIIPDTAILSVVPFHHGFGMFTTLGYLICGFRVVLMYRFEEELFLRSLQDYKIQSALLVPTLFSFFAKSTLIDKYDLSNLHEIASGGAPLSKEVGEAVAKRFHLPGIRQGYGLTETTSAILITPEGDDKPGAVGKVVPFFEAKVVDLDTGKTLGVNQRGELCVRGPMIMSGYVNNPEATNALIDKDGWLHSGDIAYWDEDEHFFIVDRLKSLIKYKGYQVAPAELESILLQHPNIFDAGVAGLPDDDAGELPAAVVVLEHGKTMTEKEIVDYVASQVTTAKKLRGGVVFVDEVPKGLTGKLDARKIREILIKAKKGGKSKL", "assay": "Counter Screen for Luciferase-based Assay Positives. [Related pubchem assays: 620, 618, 411 ]"}, "[2]": {"system": "HT-1080", "assay": "cytotoxicity in HT1080 fibrosarcoma cells, cell-based, fluorescence readout (AID 620)", "assay_type": "functional", "details": "Homo sapiens"}, "[3]": {"target": "Nonstructural protein 1 (Influenza A virus, UniProt Q194T2)", "sequence (Q194T2 whole entry)": "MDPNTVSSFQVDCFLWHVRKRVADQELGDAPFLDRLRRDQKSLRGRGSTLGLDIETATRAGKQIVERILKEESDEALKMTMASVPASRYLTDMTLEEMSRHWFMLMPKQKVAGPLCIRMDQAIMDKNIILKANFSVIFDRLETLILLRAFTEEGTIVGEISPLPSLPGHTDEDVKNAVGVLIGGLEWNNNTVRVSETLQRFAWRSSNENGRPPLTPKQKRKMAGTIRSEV", "assay_type": "functional, Influenza A virus (A/California/07/2009(H1N1))"}, "[4]": {"target": "Ras and Rab interactor 1/Tyrosine-protein kinase ABL1 (Homo sapiens, UniProt P00519+Q13671)", "sequence (P00519 whole entry)": "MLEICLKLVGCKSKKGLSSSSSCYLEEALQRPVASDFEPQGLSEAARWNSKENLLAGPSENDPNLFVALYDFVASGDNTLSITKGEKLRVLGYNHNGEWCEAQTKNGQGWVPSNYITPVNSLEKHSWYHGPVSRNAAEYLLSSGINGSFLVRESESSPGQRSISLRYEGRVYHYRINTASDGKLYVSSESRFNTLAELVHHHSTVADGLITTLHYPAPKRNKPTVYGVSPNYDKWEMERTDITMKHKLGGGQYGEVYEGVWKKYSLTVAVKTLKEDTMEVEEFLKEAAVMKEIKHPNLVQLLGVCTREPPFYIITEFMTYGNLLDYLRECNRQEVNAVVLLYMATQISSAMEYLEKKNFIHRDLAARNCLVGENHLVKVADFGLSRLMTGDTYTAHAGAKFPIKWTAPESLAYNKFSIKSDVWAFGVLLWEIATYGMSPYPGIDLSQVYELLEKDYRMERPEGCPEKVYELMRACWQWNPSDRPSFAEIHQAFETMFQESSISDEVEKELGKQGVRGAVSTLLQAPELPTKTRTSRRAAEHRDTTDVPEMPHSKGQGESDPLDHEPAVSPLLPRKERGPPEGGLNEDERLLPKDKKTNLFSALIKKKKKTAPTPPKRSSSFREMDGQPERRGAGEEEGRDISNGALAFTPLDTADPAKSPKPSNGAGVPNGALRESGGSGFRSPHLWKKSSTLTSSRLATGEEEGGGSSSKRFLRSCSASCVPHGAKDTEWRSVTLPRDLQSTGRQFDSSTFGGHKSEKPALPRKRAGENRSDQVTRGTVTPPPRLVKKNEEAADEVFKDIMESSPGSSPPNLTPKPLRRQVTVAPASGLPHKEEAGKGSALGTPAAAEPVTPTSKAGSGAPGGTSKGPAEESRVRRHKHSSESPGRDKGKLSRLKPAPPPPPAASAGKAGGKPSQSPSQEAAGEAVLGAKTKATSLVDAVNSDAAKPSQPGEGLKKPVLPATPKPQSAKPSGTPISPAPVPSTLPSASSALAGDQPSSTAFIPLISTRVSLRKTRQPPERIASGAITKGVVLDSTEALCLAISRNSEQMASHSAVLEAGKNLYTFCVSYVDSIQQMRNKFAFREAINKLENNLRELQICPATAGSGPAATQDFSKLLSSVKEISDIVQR", "sequence (Q13671 whole entry)": "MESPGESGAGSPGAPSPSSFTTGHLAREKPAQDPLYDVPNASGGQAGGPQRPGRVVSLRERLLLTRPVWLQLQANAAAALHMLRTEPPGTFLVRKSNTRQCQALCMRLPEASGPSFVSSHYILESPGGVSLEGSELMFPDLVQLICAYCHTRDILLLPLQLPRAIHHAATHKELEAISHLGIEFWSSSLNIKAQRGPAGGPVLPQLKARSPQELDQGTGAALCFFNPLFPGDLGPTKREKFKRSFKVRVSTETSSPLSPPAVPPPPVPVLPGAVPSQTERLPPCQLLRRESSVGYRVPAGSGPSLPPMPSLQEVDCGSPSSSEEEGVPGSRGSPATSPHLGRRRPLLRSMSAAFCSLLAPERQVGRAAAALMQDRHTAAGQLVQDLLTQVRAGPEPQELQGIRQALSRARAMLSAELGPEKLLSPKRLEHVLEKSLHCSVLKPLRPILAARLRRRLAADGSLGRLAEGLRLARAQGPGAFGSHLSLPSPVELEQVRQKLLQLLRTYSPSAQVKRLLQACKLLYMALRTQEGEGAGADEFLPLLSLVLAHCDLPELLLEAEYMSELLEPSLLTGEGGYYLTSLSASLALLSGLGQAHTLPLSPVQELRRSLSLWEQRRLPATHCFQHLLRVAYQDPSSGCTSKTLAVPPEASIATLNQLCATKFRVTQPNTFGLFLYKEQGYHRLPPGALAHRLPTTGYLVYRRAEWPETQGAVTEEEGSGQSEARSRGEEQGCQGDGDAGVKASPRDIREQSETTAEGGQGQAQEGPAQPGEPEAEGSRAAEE", "assay_type": "functional"}, "[5]": {"target": "T1, Histone-lysine N-methyltransferase NSD2 (Homo sapiens, UniProt O96028)", "T1 sequence (O96028 whole entry)": "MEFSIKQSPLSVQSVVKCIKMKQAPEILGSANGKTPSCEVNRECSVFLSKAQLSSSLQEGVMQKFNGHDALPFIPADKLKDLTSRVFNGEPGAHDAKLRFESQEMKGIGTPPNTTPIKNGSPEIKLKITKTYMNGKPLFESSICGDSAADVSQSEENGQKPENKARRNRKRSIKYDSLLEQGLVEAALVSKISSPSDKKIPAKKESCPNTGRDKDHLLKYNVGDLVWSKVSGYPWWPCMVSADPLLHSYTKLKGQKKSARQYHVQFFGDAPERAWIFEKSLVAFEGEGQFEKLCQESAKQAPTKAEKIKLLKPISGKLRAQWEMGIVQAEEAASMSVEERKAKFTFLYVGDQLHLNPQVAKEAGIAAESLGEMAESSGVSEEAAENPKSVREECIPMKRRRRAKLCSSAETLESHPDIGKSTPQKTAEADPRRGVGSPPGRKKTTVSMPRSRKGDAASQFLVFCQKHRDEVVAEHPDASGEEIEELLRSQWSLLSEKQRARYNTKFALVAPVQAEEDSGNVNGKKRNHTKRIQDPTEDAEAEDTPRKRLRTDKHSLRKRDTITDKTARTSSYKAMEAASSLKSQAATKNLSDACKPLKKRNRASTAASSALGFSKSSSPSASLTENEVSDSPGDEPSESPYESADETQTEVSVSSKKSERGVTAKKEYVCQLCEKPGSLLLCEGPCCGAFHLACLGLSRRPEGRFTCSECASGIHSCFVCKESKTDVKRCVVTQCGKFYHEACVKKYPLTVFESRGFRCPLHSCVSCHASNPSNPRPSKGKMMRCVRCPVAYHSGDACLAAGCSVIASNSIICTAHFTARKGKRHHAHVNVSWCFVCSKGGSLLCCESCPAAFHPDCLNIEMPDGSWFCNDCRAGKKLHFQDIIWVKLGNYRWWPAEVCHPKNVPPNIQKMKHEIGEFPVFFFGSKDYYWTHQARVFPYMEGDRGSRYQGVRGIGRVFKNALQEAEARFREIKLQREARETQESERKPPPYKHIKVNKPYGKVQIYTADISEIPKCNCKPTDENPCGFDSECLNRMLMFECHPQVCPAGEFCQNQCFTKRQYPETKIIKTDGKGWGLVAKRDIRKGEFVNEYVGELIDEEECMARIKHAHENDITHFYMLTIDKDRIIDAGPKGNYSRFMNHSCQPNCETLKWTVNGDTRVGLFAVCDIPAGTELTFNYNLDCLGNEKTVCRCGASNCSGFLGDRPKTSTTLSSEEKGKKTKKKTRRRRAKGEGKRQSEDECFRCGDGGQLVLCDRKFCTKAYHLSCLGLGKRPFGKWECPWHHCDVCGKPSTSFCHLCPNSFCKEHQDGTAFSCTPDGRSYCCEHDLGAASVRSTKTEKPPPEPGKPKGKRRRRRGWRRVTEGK", "assay_type": "biochemical"}, "[6]": {"target": "Estrogen receptor beta (Homo sapiens, UniProt Q92731)", "sequence (Q92731 whole entry)": "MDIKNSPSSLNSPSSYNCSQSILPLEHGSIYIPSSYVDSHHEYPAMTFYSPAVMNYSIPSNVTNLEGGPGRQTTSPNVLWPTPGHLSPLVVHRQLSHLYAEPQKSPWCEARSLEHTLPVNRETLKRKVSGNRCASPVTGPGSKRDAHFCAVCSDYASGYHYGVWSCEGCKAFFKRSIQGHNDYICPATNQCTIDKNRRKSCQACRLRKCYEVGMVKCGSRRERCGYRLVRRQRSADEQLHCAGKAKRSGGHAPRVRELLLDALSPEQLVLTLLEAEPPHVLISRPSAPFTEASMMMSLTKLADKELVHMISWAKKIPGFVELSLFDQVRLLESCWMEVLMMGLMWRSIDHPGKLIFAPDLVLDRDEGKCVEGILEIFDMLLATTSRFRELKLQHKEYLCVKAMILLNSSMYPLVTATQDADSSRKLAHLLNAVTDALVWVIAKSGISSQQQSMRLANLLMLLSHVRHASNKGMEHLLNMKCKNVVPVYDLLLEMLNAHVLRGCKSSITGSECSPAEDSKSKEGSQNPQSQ", "assay": "ERβ–SRC-3 coactivator interaction inhibitors, confirmation, orthogonal assay, biochemical, ELISA, streptavidin-HRP readout (AID 1060)"}, "[7]": {"assay": "inhibitors of intracellular T. cruzi replication, confirmation, NIH3T3 host cells, beta-gal luminescence (AID 2044);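 note: luminescent beta-galactosidase reporter signal from transgenic T. cruzi replicating inside host cells; inhibitors lower the luminescence signal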", "assay_type": "functional, cell-based"}, "[8]": {"assay": "cytotoxicity toward NIH3T3 fibroblasts, dose response, counter-screen, cell-based, ATP luminescence, mouse fibroblasts (AID 2010);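 note: cells exposed to compound for about 90 hours before reading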", "assay_type": "functional"}, "[9]": {"assay": "cells"}},
  "note": "Active and inactive are the calls of the source.",
  "data": [
    {"smiles": "O=C(CSc1nnc(-c2csc3c2CCCC3)o1)Nc1ccccc1", "values": [
      {"measurement": "EC50", "setting": "[1]", "result": "4340 nM (active)"},
      {"measurement": "EC50", "setting": "[2]", "result": "> 50000 nM (not active)"}
    ]},
    {"smiles": "CC1NC(=O)NC1CCCCCC(=O)Nc1ccc(F)c(Cl)c1", "note": "(stereo not given)", "values": [
      {"measurement": "IC50", "setting": "[3]", "result": "1160 nM (active)"},
      {"measurement": "IC50", "setting": "[4]", "result": "15 nM (active)"},
      {"measurement": "AC50", "setting": "[5]", "result": "343 nM (active)"}
    ]},
    {"smiles": "CN1CCN(c2ccc(NC(=O)COc3ccccc3Cl)cc2)CC1", "values": [
      {"measurement": "IC50", "setting": "[6]", "result": "814 nM (not active)"}
    ]},
    {"smiles": "N#Cc1c(NC(=O)CN2CCCCC2)sc2c1CCCC2", "values": [
      {"measurement": "IC50", "setting": "[6]", "result": "34.3 nM (not active)"}
    ]},
    {"smiles": "CC1CN(CCOCCSc2ccc(Cl)cc2)CC(C)O1", "note": "(stereo not given)", "values": [
      {"measurement": "EC50", "setting": "[7]", "result": "< 100 nM (active)"},
      {"measurement": "EC50", "setting": "[8]", "result": "> 60000 nM (not active)"},
      {"measurement": "EC50", "setting": "[9]", "result": "25 nM (active)"}
    ]}
  ]
}
